Measurements from PMC8781192, “An In Silico and an In Vitro Inhibition Analysis of Glycogen Phosphorylase by Flavonoids, Styrylchromones, and Pyrazoles” (Nutrients, 2022).
Read-outs that look alike come from different tables or passages of the source.

Legend:
rabbit mGPa [1] = target: T1, rabbit mGPa (Oryctolagus cuniculus, UniProt P00489); set-up: method as in PMID 16317787; conditions: direction of glycogen breakdown; cited from earlier work
T1 construct: purchased Creative Enzymes
T1 sequence (P00489 2-843 limits assumed): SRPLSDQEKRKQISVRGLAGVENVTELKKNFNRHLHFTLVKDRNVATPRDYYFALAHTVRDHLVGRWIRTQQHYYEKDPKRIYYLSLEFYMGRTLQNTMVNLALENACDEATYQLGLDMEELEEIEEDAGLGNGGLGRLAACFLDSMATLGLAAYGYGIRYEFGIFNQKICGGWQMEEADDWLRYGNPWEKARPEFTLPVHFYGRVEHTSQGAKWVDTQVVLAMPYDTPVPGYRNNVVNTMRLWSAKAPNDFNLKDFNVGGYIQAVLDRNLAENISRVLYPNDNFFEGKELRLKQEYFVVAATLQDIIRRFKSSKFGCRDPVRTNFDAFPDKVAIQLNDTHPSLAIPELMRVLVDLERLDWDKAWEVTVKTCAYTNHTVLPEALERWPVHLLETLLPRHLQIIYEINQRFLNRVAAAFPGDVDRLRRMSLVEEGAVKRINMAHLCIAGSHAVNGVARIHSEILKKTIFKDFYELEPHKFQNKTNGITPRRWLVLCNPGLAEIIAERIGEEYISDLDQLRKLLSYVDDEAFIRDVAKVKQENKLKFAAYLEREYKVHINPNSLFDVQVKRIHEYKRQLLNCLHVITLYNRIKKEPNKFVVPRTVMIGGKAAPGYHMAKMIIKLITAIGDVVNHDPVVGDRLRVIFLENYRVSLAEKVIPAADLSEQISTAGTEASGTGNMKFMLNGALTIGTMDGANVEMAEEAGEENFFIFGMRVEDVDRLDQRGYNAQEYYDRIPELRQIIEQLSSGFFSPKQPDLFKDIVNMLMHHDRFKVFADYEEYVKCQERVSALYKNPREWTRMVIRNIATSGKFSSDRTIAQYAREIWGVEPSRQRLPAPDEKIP

[2] = test system: rabbit mGPa and mGPb, together with human lGPa; set-up: method as in PMID 32771768; conditions: direction of glycogen synthesis; cited from earlier work
GP = test system: GP; set-up: method as in PMID 18494482; conditions: cited from earlier work
rabbit mGPa [3] = target: T1, rabbit mGPa; assay: In vitro glycogen phosphorylase inhibition assay (direction of glycogen synthesis, colorimetric phosphate); assay type: biochemical; conditions: no glucose; mean ± SEM; read-out: GPa IC50 value
Procedure: The GP activity was measured using a previously optimized and validated method. In each assay, GP activity was measured by the direction of glycogen synthesis, which involved monitoring the colorimetric determination of inorganic phosphate deriving from glucose 1-phosphate. […] The enzymatic reaction was then started with the addition of a 50 mM HEPES buffer solution, with a pH of 7.2, containing 100 mM KCl, 2.5 mM MgCl2, 0.25 mM glucose 1-phosphate, and 0.25 mg/mL glycogen incubated for 30 min at 37 °C. After this incubation time, the reagent for colorimetric phosphate quantitation, BIOMOL® Green, was added to the reaction mixture. The reaction was monitored in a microplate reader (Synergy HT, BioTek Instruments, Winooski, VT, USA) at 620 nm.

rabbit mGPa [4] = target: T1, rabbit mGPa; assay: In vitro effect of glucose on inhibitor potency (GPa inhibition with 0, 5, 10 mM glucose); assay type: biochemical; conditions: mean ± SEM, read-out: GPa IC50 value
Procedure: The method was performed as described in Section 2.2, with slight modifications. […] The enzymatic reaction was then started with the addition of a 50 mM HEPES buffer solution with a pH of 7.2 containing 100 mM KCl, 2.5 mM MgCl2, 0.25 mM glucose 1-phosphate, and 0.25 mg/mL glycogen. This buffer was used without glucose, or it was enriched with 5 and 10 mM of glucose and was incubated for 30 min at 37 °C in the reaction mixture. After this incubation time, BIOMOL® Green was added, and the reaction was monitored in a microplate reader (Synergy HT, BioTek Instruments, Winooski, VT, USA) at 620 nm.

GPb = test system: GPb; set-up: method as in PMID 16317787; conditions: direction of glycogen breakdown; cited from earlier work

O=c1cc(-c2ccccc2)oc2cc(O)cc(O)c12 [Compound 38, Chrysin]
IC50 (rabbit mGPa [1]): 27.5 µM | potency relative to flavonoid 45, quercetin [2]: ~10 fold | IC50 (GP): > 200 µM | IC50 (rabbit mGPa [3]): 19.3 ± 1.5 µM | IC50 (rabbit mGPa [4]; 0 mM of glucose): 19.3 ± 1.5 µM | IC50 (rabbit mGPa [4]; 5 mM of glucose): 8.8 ± 0.8 µM | IC50 (rabbit mGPa [4]; 10 mM of glucose): 5.2 ± 0.3 µM | IC50 (GPb): 15.3 ± 1 µM
